# Like-named read-outs stand apart in the source and are kept apart here.
# Assays:
# [1] = biological target: T1, His-GST-TVMV-hRIPK1(1-324) (Homo sapiens, UniProt Q13546); assay: RIPK1 HTRF Binding Assay
# T1 construct: The coding region of human RIPK1(1-324) flanked by NdeI site at 5′ end; made in house; host or cells: Spodoptera frugiperda (Sf9) insect cells, baculovirus
# T1 sequence (Q13546 1-324): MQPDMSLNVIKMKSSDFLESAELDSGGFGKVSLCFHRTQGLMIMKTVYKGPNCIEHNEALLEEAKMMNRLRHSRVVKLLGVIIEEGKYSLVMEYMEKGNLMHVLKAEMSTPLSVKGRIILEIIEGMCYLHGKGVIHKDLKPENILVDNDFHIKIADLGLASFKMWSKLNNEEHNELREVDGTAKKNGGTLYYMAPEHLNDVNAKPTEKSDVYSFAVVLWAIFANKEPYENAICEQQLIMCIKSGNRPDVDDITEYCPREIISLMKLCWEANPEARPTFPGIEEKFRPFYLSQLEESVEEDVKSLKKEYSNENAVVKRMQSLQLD
# [2] = system: MLKL phosphorylation in HT29-L23 human colorectal adenocarcinoma cells; assay: MLKL Phosphorylation High-Content Assay; assay type: cell-based; details: Homo sapiens
# How it was run: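 IC50 and Ymax obtained by 4-parameter logistic fitting of MLKL phosphorylation, measured as mean circ-ring average intensity ratio from high-content images. Staining used an anti-phospho-S358 MLKL antibody overnight at 4° C., following six-hour cell incubation at 37° C.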
# [3] = x marks IC50 class <20 nM, read-out: RIPK1 HTRF binding <20 nM
# [4] = x marks IC50 class 20-200 nM, read-out: pMLKL cell activity 20-200 nM
# [5] = x marks IC50 class 20-200 nM, read-out: RIPK1 HTRF binding 20-200 nM
# [6] = x marks IC50 class >200 nM, read-out: pMLKL cell activity >200 nM
# [7] = x marks IC50 class <20 nM, read-out: pMLKL cell activity <20 nM
SMILES,"IC50 [1, 3] [nM]","IC50 [2, 4] [nM]","IC50 [1, 5] [nM]","IC50 [2, 6] [nM]",also measured
"[2H]C([2H])([2H])[C@@H](NC(=O)c1cc(-c2ccn3nc(N)nc3c2)cnc1C)c1cc(C(F)(F)F)ccc1F [Example 303, (R)-5-(2-amino-[1,2,4]triazolo[1,5-a]pyridin-7-yl)-N-(1-(2-fluoro-5-(trifluoromethyl)phenyl)ethyl-2,2,2-H3)-2-methylnicotinamide]",< 20,20 to 200,–,–,–
"Cc1ncc(-c2ccn3nc(N)nc3c2)cc1C(=O)NCc1c(OCC2CC2)ccc(F)c1F [Example 304, 5-(2-amino-[1,2,4]triazolo[1,5-a]pyridin-7-yl)-N-(6-(cyclopropylmethoxy)-2,3-difluorobenzyl)-2-methylnicotinamide]",< 20,20 to 200,–,–,–
"Cc1ncc(-c2ccn3nc(N)nc3c2)cc1C(=O)NCc1ccccc1OCC(C)C [Example 305, 5-(2-amino-[1,2,4]triazolo[1,5-a]pyridin-7-yl)-N-(2-isobutoxybenzyl)-2-methylnicotinamide]",–,20 to 200,20 to 200,–,–
"Cc1ncc(-c2ccn3nc(N)nc3c2)cc1C(=O)NCc1c(F)cccc1OCC(F)(F)F [Example 306, 5-(2-amino-[1,2,4]triazolo[1,5-a]pyridin-7-yl)-N-(2-fluoro-6-(2,2,2-trifluoroethoxy)benzyl)-2-methylnicotinamide]",–,20 to 200,20 to 200,–,–
"[2H]C([2H])(NC(=O)c1cc(-c2ccn3nc(N)nc3c2)cnc1C)c1cc(C(F)(F)F)ccc1F [Example 307, 5-(2-amino-[1,2,4]triazolo[1,5-a]pyridin-7-yl)-N-((2-fluoro-5-(trifluoromethyl)phenyl)methyl-H2)-2-methylnicotinamide]",< 20,20 to 200,–,–,–
"Cc1ncc(-c2ccn3nc(N)nc3c2)cc1C(=O)NCc1cc(F)cc(F)c1OC1CC1 [Example 308, 5-(2-amino-[1,2,4]triazolo[1,5-a]pyridin-7-yl)-N-(2-cyclopropoxy-3,5-difluorobenzyl)-2-methylnicotinamide]",–,20 to 200,20 to 200,–,–
"Cc1ncc(-c2ccn3nc(N)nc3c2)cc1C(=O)NCc1cc(F)ccc1OCC(F)(F)F [Example 309, 5-(2-amino-[1,2,4]triazolo[1,5-a]pyridin-7-yl)-N-(5-fluoro-2-(2,2,2-trifluoroethoxy)benzyl)-2-methylnicotinamide]",< 20,–,–,> 200,–
"[2H]C([2H])([2H])[C@H](NC(=O)c1cc(-c2ccn3nc(N)nc3c2)cnc1C)c1cccc(OC(F)(F)F)c1 [Example 310, (S)-5-(2-amino-[1,2,4]triazolo[1,5-a]pyridin-7-yl)-2-methyl-N-(1-(3-(trifluoromethoxy)phenyl)ethyl-2,2,2-H3)nicotinamide]",–,–,20 to 200,> 200,–
"[2H]C([2H])([2H])[C@@H](NC(=O)c1cc(-c2ccn3nc(N)nc3c2)cnc1C)c1cccc(OC(F)(F)F)c1 [Example 311, (R)-5-(2-amino-[1,2,4]triazolo[1,5-a]pyridin-7-yl)-2-methyl-N-(1-(3-(trifluoromethoxy)phenyl)ethyl-2,2,2-H3)nicotinamide]",–,–,20 to 200,> 200,–
"Cc1ncc(-c2ccn3nc(N)nc3c2)cc1C(=O)NCc1ccccc1OCC(F)(F)F [Example 312, 5-(2-amino-[1,2,4]triazolo[1,5-a]pyridin-7-yl)-2-methyl-N-(2-(2,2,2-trifluoroethoxy)benzyl)nicotinamide]",–,–,20 to 200,> 200,–
"Cc1ncc(-c2ccn3nc(N)nc3c2)cc1C(=O)NCc1cccc(OCC(F)(F)F)c1 [Example 313, 5-(2-amino-[1,2,4]triazolo[1,5-a]pyridin-7-yl)-2-methyl-N-(3-(2,2,2-trifluoroethoxy)benzyl)nicotinamide]",–,–,20 to 200,> 200,–
"Cc1ncc(-c2ccn3nc(N)nc3c2)cc1C(=O)NCc1cc(F)cc(F)c1OC1CCCOC1 (stereo not shown) [Example 314, 5-(2-amino-[1,2,4]triazolo[1,5-a]pyridin-7-yl)-N-(3,5-difluoro-2-((tetrahydro-2H-pyran-3-yl)oxy)benzyl)-2-methylnicotinamide]",–,20 to 200,20 to 200,–,–
"Cc1ncc(-c2ccn3nc(N)nc3c2)cc1C(=O)NCc1cc(F)cc(F)c1OC1CC(C)OC(C)C1 (stereo not shown) [Example 315, 5-(2-amino-[1,2,4]triazolo[1,5-a]pyridin-7-yl)-N-(2-((2,6-dimethyltetrahydro-2H-pyran-4-yl)oxy)-3,5-difluorobenzyl)-2-methylnicotinamide]",–,20 to 200,20 to 200,–,–
"Cc1ncc(-c2ccn3nc(N)nc3c2)cc1C(=O)NCc1cc(F)cc(F)c1OC1CCOC(C)C1 (stereo not shown) [Example 316, 5-(2-amino-[1,2,4]triazolo[1,5-a]pyridin-7-yl)-N-(3,5-difluoro-2-((2-methyltetrahydro-2H-pyran-4-yl)oxy)benzyl)-2-methylnicotinamide]",–,–,20 to 200,> 200,–
"Cc1ncc(-c2ccn3nc(N)nc3c2)cc1C(=O)NCc1cc(F)cc(F)c1OC1CCOC1 (stereo not shown) [Example 317, 5-(2-amino-[1,2,4]triazolo[1,5-a]pyridin-7-yl)-N-(3,5-difluoro-2-((tetrahydrofuran-3-yl)oxy)benzyl)-2-methylnicotinamide]",–,–,20 to 200,> 200,–
"Cc1ncc(-c2ccn3nc(N)nc3c2)cc1C(=O)N(C)[C@H](C)c1cc(OC(F)(F)F)ccc1F [Example 318, (R)-5-(2-amino-[1,2,4]triazolo[1,5-a]pyridin-7-yl)-N-(1-(2-fluoro-5-(trifluoromethoxy)phenyl)ethyl)-N,2-dimethylnicotinamide]",–,20 to 200,–,–,"IC50 ([1]; x marks IC50 class >200 nM, read-out: RIPK1 HTRF binding >200 nM): > 200 nM"
"CCc1ncc(-c2ccn3nc(N)nc3c2)cc1C(=O)N[C@H](C)c1cc(OC(F)(F)F)ccc1F [Example 320, (R)-5-(2-amino-[1,2,4]triazolo[1,5-a]pyridin-7-yl)-2-ethyl-N-(1-(2-fluoro-5-(trifluoromethoxy)phenyl)ethyl)nicotinamide]",–,–,20 to 200,–,"IC50 [2, 7]: < 20 nM"
"CCc1ncc(-c2ccn3nc(N)nc3c2)cc1C(=O)N[C@@H](C)c1cc(OC(F)(F)F)ccc1F [Example 321, (S)-5-(2-amino-[1,2,4]triazolo[1,5-a]pyridin-7-yl)-2-ethyl-N-(1-(2-fluoro-5-(trifluoromethoxy)phenyl)ethyl)nicotinamide]",–,20 to 200,20 to 200,–,–
"CCc1ncc(-c2ccn3nc(N)nc3c2)cc1C(=O)NCc1cc(C(F)(F)F)ccc1F [Example 322, 5-(2-amino-[1,2,4]triazolo[1,5-a]pyridin-7-yl)-2-ethyl-N-(2-fluoro-5-(trifluoromethyl)benzyl)nicotinamide]",–,20 to 200,20 to 200,–,–
"Cc1nc(Cl)c(C(=O)N[C@H](C)c2cc(OC(F)(F)F)ccc2F)cc1-c1ccn2nc(N)nc2c1 [Example 323, (R)-5-(2-amino-[1,2,4]triazolo[1,5-a]pyridin-7-yl)-2-chloro-N-(1-(2-fluoro-5-(trifluoromethoxy)phenyl)ethyl)-6-methylnicotinamide]",–,20 to 200,20 to 200,–,–
"C[C@@H](NC(=O)c1cc(-c2ccn3nc(N)nc3c2)cnc1Cl)c1cc(OC(F)(F)F)ccc1F [Example 324, (R)-5-(2-amino-[1,2,4]triazolo[1,5-a]pyridin-7-yl)-2-chloro-N-(1-(2-fluoro-5-(trifluoromethoxy)phenyl)ethyl)nicotinamide]",< 20,20 to 200,–,–,–
"COc1nc(C)c(-c2ccn3nc(N)nc3c2)cc1C(=O)N(C)[C@H](C)c1cc(OC(F)(F)F)ccc1F [Example 325, (R)-5-(2-amino-[1,2,4]triazolo[1,5-a]pyridin-7-yl)-N-(1-(2-fluoro-5-(trifluoromethoxy)phenyl)ethyl)-2-methoxy-N,6-dimethylnicotinamide]",–,20 to 200,20 to 200,–,–
"COc1nc(C)c(-c2ccn3nc(N)nc3c2)cc1C(=O)NCc1cccc(F)c1CN1CCCC1 [Example 326, 5-(2-Amino-[1,2,4]triazolo[1,5-a]pyridin-7-yl)-N-(3-fluoro-2-(pyrrolidin-1-ylmethyl)benzyl)-2-methoxy-6-methylnicotinamide]",–,–,20 to 200,> 200,–
"COc1nc(C)c(-c2ccn3nc(N)nc3c2)cc1C(=O)NCc1ccccc1OCC(C)C [Example 327, 5-(2-amino-[1,2,4]triazolo[1,5-a]pyridin-7-yl)-N-(2-isobutoxybenzyl)-2-methoxy-6-methylnicotinamide]",< 20,–,–,–,"IC50 [2, 7]: < 20 nM"
"COc1nc(C)c(-c2ccn3nc(N)nc3c2)cc1C(=O)NCc1c(F)cccc1OCC(F)(F)F [Example 328, 5-(2-amino-[1,2,4]triazolo[1,5-a]pyridin-7-yl)-N-(2-fluoro-6-(2,2,2-trifluoroethoxy)benzyl)-2-methoxy-6-methylnicotinamide]",< 20,–,–,–,"IC50 [2, 7]: < 20 nM"
"COc1nc(C)c(-c2ccn3nc(N)nc3c2)cc1C(=O)NCc1cc(F)ccc1OC(F)(F)F [Example 329, 5-(2-amino-[1,2,4]triazolo[1,5-a]pyridin-7-yl)-N-(5-fluoro-2-(trifluoromethoxy)benzyl)-2-methoxy-6-methylnicotinamide]",< 20,20 to 200,–,–,–
